Legend:
[1] = n-octanol-KCl distribution coefficient, log D of the compound at pH 7.4; format: physicochemical
[2] = system: Plasmodium falciparum; assay: Antiplasmodial activity against chloroquine-sensitive Plasmodium falciparum D10 infected in human red blood cells after 72 hrs by parasite lactate dehydrogenase assay; format: functional, organism-based; conditions: D10, 72 h
[3] = system: Plasmodium falciparum; assay: Ratio of chloroquine IC50 to compound IC50 for chloroquine-sensitive Plasmodium falciparum D10; format: functional
[4] = Selectivity index, ratio of IC50 for human HMEC1 cells to IC50 for chloroquine-resistant Plasmodium falciparum W2; format: toxicity, cell-based; conditions: read-out: Ratio IC50
[5] = system: Plasmodium falciparum; assay: Antiplasmodial activity against chloroquine-resistant Plasmodium falciparum W2 infected in human red blood cells after 72 hrs by parasite lactate dehydrogenase assay; format: functional, organism-based; conditions: W2, 72 h
[6] = Resistance index, ratio of IC50 for chloroquine-resistant Plasmodium falciparum W2 to IC50 for chloroquine-sensitive Plasmodium falciparum D10; format: functional
[7] = Lipophilicity, log P of the compound at pH 7.4; format: physicochemical; conditions: buffer
[8] = Cytotoxicity against human HMEC1 cells after 72 hrs by MTT assay; format: cell-based; conditions: HMEC-1, 72 h
[9] = system: Plasmodium falciparum; assay: Ratio of chloroquine IC50 to compound IC50 for chloroquine-resistant Plasmodium falciparum W2; format: functional
[10] = Dissociation constant, pKa of the compound; format: physicochemical
[11] = Inhibition of beta-hematin formation assessed as ratio of drug to haemin for 50% inhibition by BHIA assay; format: functional

Clc1ccc2c(NCc3nc4ccccc4[nH]3)ccnc2c1
logD [1]: 3.56
IC50 [2]: 70.6 nM
Ratio IC50 [3]: 0.2
selectivity ratio [4]: 9
IC50 [5]: 256 nM
Ratio IC50 [6]: 3.6
logP ([7]; read-out: logP): 3.78
IC50 [8]: 2400 nM
Ratio IC50 [9]: 1.68

Clc1ccc2c(NCc3ncc(CN4CCCC4)[nH]3)ccnc2c1
logD [1]: 1.42
IC50 [2]: 399 nM
Ratio IC50 [3]: 0.04
IC50 [5]: 3120 nM
Ratio IC50 [6]: 7.8
logP ([7]; read-out: logP): 4.78
Ratio IC50 [9]: 0.05

Clc1ccc(-c2nc(CNc3ccnc4cc(Cl)ccc34)[nH]c2CN2CCCC2)cc1
logD [1]: 4.63
IC50 [2]: 5.5 nM
Ratio IC50 [3]: 2
selectivity ratio [4]: 76
IC50 [5]: 27.2 nM
Ratio IC50 [6]: 4.9
logP ([7]; read-out: logP): 6.96
IC50 [8]: 2060 nM
Ratio IC50 [9]: 10.62

Cc1ccc(-c2c[nH]c(CNc3ccnc4cc(Cl)ccc34)n2)cc1
logD [1]: 4.66
IC50 [2]: 17.2 nM
Ratio IC50 [3]: 0.64
selectivity ratio [4]: 191
IC50 [5]: 40.7 nM
Ratio IC50 [6]: 2.4
logP ([7]; read-out: logP): 4.95
IC50 [8]: 7770 nM
Ratio IC50 [9]: 7.1

Cc1ccc(-c2nc(CNc3ccnc4cc(Cl)ccc34)[nH]c2CN2CCCC2)cc1
logD [1]: 4
IC50 [2]: 7.4 nM
Ratio IC50 [3]: 1.49
selectivity ratio [4]: 53
IC50 [5]: 69.3 nM
Ratio IC50 [6]: 9.4
logP ([7]; read-out: logP): 6.45
IC50 [8]: 3660 nM
Ratio IC50 [9]: 4.17

Clc1ccc2c(NCc3ncc[nH]3)ccnc2c1
logD [1]: 2.39
IC50 [2]: 152 nM
Ratio IC50 [3]: 0.11
IC50 [5]: 384 nM
Ratio IC50 [6]: 2.5
logP ([7]; read-out: logP): 2.82
Ratio IC50 [9]: 0.39

CCN(CC)Cc1cnc(CNc2ccnc3cc(Cl)ccc23)[nH]1
IC50 [2]: 191 nM
Ratio IC50 [3]: 0.07
IC50 [5]: 3800 nM
Ratio IC50 [6]: 19.9
Ratio IC50 [9]: 0.04

Clc1ccc2c(Nc3ccc(CN4CCCC4)s3)ccnc2c1
logD [1]: 2.98
IC50 [2]: 2660 nM
Ratio IC50 [3]: 0.01
IC50 [5]: 4220 nM
Ratio IC50 [6]: 1.6
logP ([7]; read-out: logP): 3.93
Ratio IC50 [9]: 0.04

CCN(CC)Cc1[nH]c(CNc2ccnc3cc(Cl)ccc23)nc1-c1ccc(Cl)cc1
IC50 [2]: 8.8 nM
Ratio IC50 [3]: 1.25
selectivity ratio [4]: 89
IC50 [5]: 27.6 nM
Ratio IC50 [6]: 3.1
IC50 [8]: 2440 nM
Ratio IC50 [9]: 10.47

Clc1ccc2c(NCc3nc(-c4ccccc4)c(CN4CCCC4)s3)ccnc2c1
logD [1]: 6.01
IC50 [2]: 19.3 nM
Ratio IC50 [3]: 0.81
selectivity ratio [4]: 506
IC50 [5]: 60.1 nM
Ratio IC50 [6]: 3.1
logP ([7]; read-out: logP): 6.78
IC50 [8]: 30400 nM
Ratio IC50 [9]: 4.93

Clc1ccc2c(NCc3nc(-c4ccccc4)cs3)ccnc2c1
logD [1]: 5.15
IC50 [2]: 212 nM
pKa [10]: 6.45
Ratio IC50 [3]: 0.07
IC50 [5]: 396 nM
Ratio IC50 [6]: 1.9
logP ([7]; read-out: logP): 5.2
Ratio IC50 [9]: 1.09

Clc1ccc(-c2c[nH]c(CNc3ccnc4cc(Cl)ccc34)n2)cc1
logD [1]: 5.1
IC50 [2]: 25.8 nM
Ratio IC50 [3]: 0.43
selectivity ratio [4]: 123
IC50 [5]: 60.5 nM
Ratio IC50 [6]: 2.3
logP ([7]; read-out: logP): 5.34
IC50 [8]: 7450 nM
Ratio IC50 [9]: 4.77

Clc1ccc2c(NCc3nc(-c4ccccc4)c(CN4CCCC4)[nH]3)ccnc2c1
logD [1]: 4.22
IC50 [2]: 22.9 nM
Ratio IC50 [3]: 0.71
selectivity ratio [4]: 95
IC50 [5]: 91.6 nM
Ratio IC50 [6]: 4
logP ([7]; read-out: logP): 6.35
IC50 [8]: 8660 nM
Ratio IC50 [9]: 1.67

Clc1ccc2c(NCc3ccc(CN4CCCC4)s3)ccnc2c1
logD [1]: 2.77
IC50 [2]: 12.5 nM
Ratio IC50 [3]: 1.11
selectivity ratio [4]: 921
IC50 [5]: 26.3 nM
Ratio IC50 [6]: 2.1
logP ([7]; read-out: logP): 4.42
IC50 [8]: 24200 nM
Ratio IC50 [9]: 16.43
IC50 [11]: 1.08 molar ratio

CCN(CC)Cc1[nH]c(CNc2ccnc3cc(Cl)ccc23)nc1-c1ccccc1
IC50 [2]: 28 nM
Ratio IC50 [3]: 0.58
selectivity ratio [4]: 107
IC50 [5]: 85.8 nM
Ratio IC50 [6]: 3.1
IC50 [8]: 9140 nM
Ratio IC50 [9]: 1.78

CCN(CC)CCCC(C)Nc1ccnc2cc(Cl)ccc12 (configuration not stated) [CHLOROQUINE]
IC50 [8]: > 38000 nM
IC50 [11]: 1.94 molar ratio

Clc1ccc2c(NCc3nc(-c4ccccc4)co3)ccnc2c1
logD [1]: 4.81
IC50 [2]: 270 nM
pKa [10]: 6.36
Ratio IC50 [3]: 0.05
IC50 [5]: 513 nM
Ratio IC50 [6]: 1.9
logP ([7]; read-out: logP): 4.85
Ratio IC50 [9]: 0.84

Clc1ccc2c(NCc3nc(-c4ccccc4)c[nH]3)ccnc2c1
logD [1]: 4.62
IC50 [2]: 116 nM
Ratio IC50 [3]: 0.14
selectivity ratio [4]: 154
IC50 [5]: 85.1 nM
Ratio IC50 [6]: 0.7
logP ([7]; read-out: logP): 4.98
IC50 [8]: 13100 nM
Ratio IC50 [9]: 1.78

Cn1c(CNc2ccnc3cc(Cl)ccc23)nc(-c2ccccc2)c1CN1CCCC1
logD [1]: 7.57
IC50 [2]: 11.8 nM
Ratio IC50 [3]: 1.18
selectivity ratio [4]: 1080
IC50 [5]: 26.5 nM
Ratio IC50 [6]: 2.2
logP [7]: 9.18
IC50 [8]: 28600 nM
Ratio IC50 [9]: 16.27

CN(C)c1ccc(-c2c[nH]c(CNc3ccnc4cc(Cl)ccc34)n2)cc1
logD [1]: 4.75
IC50 [2]: 13.4 nM
Ratio IC50 [3]: 0.82
selectivity ratio [4]: 320
IC50 [5]: 20.9 nM
Ratio IC50 [6]: 1.6
logP ([7]; read-out: logP): 5.07
IC50 [8]: 6670 nM
Ratio IC50 [9]: 13.8
IC50 [11]: 0.42 molar ratio

Clc1ccc2c(NCc3nc(-c4ccc(N5CCCC5)cc4)c[nH]3)ccnc2c1
logD [1]: 8.53
IC50 [2]: 18.2 nM
Ratio IC50 [3]: 0.77
selectivity ratio [4]: 69
IC50 [5]: 35.3 nM
Ratio IC50 [6]: 1.9
logP ([7]; read-out: logP): 8.87
IC50 [8]: 2430 nM
Ratio IC50 [9]: 12.22

Fc1ccc(-c2c[nH]c(CNc3ccnc4cc(Cl)ccc34)n2)cc1
logD [1]: 4.93
IC50 [2]: 52.1 nM
Ratio IC50 [3]: 0.28
selectivity ratio [4]: 120
IC50 [5]: 82.4 nM
Ratio IC50 [6]: 1.6
logP ([7]; read-out: logP): 5.31
IC50 [8]: 9920 nM
Ratio IC50 [9]: 5.05

CN(C)c1cccc(-c2c[nH]c(CNc3ccnc4cc(Cl)ccc34)n2)c1
logD [1]: 5.48
IC50 [2]: 32 nM
Ratio IC50 [3]: 0.46
selectivity ratio [4]: 168
IC50 [5]: 53.5 nM
Ratio IC50 [6]: 1.7
logP ([7]; read-out: logP): 5.86
IC50 [8]: 8970 nM
Ratio IC50 [9]: 7.78

Fc1ccc(-c2nc(CNc3ccnc4cc(Cl)ccc34)[nH]c2CN2CCCC2)cc1
logD [1]: 4.77
IC50 [2]: 25.7 nM
Ratio IC50 [3]: 0.57
IC50 [5]: 197 nM
Ratio IC50 [6]: 7.7
logP ([7]; read-out: logP): 6.78
Ratio IC50 [9]: 2.11

CCN(CC)Cc1ccc(Nc2ccnc3cc(Cl)ccc23)s1
IC50 [2]: 1860 nM
Ratio IC50 [3]: 0.08
IC50 [5]: 2580 nM
Ratio IC50 [6]: 1.4
Ratio IC50 [9]: 0.06

Cn1cc(-c2ccccc2)nc1CNc1ccnc2cc(Cl)ccc12
logD [1]: 4.57
IC50 [2]: 30 nM
Ratio IC50 [3]: 0.46
selectivity ratio [4]: 249
IC50 [5]: 70.3 nM
Ratio IC50 [6]: 2.3
logP ([7]; read-out: logP): 4.99
IC50 [8]: 17500 nM
Ratio IC50 [9]: 6.14

From ChEMBL document CHEMBL2146461, “Synthesis and antiplasmodial activity of new heteroaryl derivatives of 7-chloro-4-aminoquinoline” (Bioorg Med Chem, 2012)
